Measurements published in patent publication US11123340B2, “Small-molecule UT-A-selective urea transport inhibitors” (The Regents of the University of California, priority 2014, dated 2021).
Values after ≈ are worked out from the molar mass of the structure shown. Where two headings read alike, the source gives them in different places.

Key:
UT-A1 = biological target: T1, UT-A1 (Rattus norvegicus, UniProt Q62668); test: Transepithelial urea transport in UT-A1-expressing MDCK cells on porous filters; assay type: cell-based; conditions: 3 μM inhibitor, forskolin 10 μM
T1 construct: expressed in transfected cells; host or cells: MDCK cells
T1 sequence (Q62668 1-929): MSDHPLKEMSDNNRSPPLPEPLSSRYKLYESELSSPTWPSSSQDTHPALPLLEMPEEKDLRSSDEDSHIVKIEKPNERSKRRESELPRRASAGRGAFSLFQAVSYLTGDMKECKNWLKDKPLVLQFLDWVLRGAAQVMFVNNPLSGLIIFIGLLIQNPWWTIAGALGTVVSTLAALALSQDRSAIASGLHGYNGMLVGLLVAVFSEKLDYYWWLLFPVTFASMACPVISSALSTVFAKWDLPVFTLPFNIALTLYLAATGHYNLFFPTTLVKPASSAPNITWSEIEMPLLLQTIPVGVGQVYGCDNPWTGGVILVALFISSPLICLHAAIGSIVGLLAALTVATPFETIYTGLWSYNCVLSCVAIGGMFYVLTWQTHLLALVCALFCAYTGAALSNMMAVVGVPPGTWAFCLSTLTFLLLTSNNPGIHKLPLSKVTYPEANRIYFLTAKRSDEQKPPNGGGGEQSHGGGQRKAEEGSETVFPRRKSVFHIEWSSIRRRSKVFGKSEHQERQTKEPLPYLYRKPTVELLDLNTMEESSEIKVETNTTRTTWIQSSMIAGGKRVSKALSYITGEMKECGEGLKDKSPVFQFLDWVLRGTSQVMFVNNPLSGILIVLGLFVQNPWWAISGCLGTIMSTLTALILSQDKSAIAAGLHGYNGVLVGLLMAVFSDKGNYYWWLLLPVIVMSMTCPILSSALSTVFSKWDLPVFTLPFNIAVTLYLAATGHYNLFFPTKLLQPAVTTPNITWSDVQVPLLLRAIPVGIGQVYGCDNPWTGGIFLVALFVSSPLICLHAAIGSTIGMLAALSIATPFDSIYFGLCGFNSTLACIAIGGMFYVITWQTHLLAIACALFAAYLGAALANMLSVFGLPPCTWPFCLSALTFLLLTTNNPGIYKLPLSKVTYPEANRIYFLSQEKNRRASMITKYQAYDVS
Method: (§1) UT-A1 expressing MDCK cells were grown on 12-mm diameter collagen-coated Transwell inserts (0.4 μm pore size; Costar, Costar, N.Y.) to form tight monolayers (resistance>500 Ωcm^2), as described (see, e.g., Levin et al. (2007) FASEB J. 21, 551-563). Urea flux in the basolateral-to-apical direction was measured in response to a 15 mM urea gradient in which PBS containing forskolin (10 μM), with or without UT-A1 inhibitor and 0.7 mM phloretin, was added to both the apical-facing (0.2 mL) and basal-facing (2 mL) surfaces. After 30 min the basal-facing solution was replaced by PBS containing test compound+15 mM urea. Apical fluid samples (5 μL) were collected at specified times for enzymatic assay of urea (QUANTICHROME Urea Assay Kit; BioAssay Systems, Hayward, Calif.). To measure inhibitor permeability across MDCK cell layers, compounds (20 μM) were added on the basal-facing surface and fluid samples (20 μL) from the apical-facing surface were collected at different time points and analyzed by LC/MS.
Transepithelial urea transport from the basolateral to the apical solution was measured by enzymatic assay of urea in the apical solution following urea addition to the basal-facing solution.

MDCK cell monolayers = test: Inhibitor permeability across MDCK cell monolayers (LC/MS); assay type: in vitro ADME, canine; conditions: computed from surface-to-volume considerations
Method: as §1
To further evaluate the potential site of inhibitor action, the kinetics of UT-A1 inhibition was measured by assay of UT-A1 inhibition at different times after compound addition. […] To assess inhibitor membrane permeability transport of UTAinh-E02 and UTAinh-F11 across MDCK monolayers grown on porous filters by LC/MS was measured. Transport of UTAinh-F11 was much faster than that of UTAinh-E02 (FIG. 3C, right lower panel), with computed transepithelial permeability coefficients of […] and 1.1×10^−5 cm/s, respectively. From surface-to-volume considerations, the equilibration times were computed of UTAinh-E02 and UTAinh-F11 to be 250 and 14 s, respectively, in MDCK cells, which are consistent with intracellular sites of action of both inhibitors.

[1] = system: multiple anion (CFTR, calcium-activated chloride channels) and cation (K+, Na+) channels; test: Short-circuit current in MDCK cells (ion channel off-target effects); assay type: cell-based, canine; conditions: 20 μM inhibitor, forskolin and ATP
Method: MDCK cells on black 96-well Costar microplates with clear plastic bottoms were cultured for 24 h at 37° C. and incubated with test compounds (0 to 25 μM) for 24 h. Cell viability was assayed using AlamarBlue (Pierce, Rockford, Ill.) in which the reagent was added to each well, incubated for 30 min, and absorbance measured at 590 nm. For short-circuit current measurement, snapwell inserts containing MDCK cells were mounted on Ussing chambers. Test compounds (20 μM) were incubated with MDCK cells at both apical and basolateral sides for 10 min at 37° C. prior to addition of 20 μM forskolin and then 100 μM ATP. The apical and basolateral chambers contained identical solutions: 120 mM NaCl, 5 mM KCl, 1 mM MgCl2, 1 mM CaCl2, 5 mM HEPES, 25 mM NaHCO3 and 10 mM glucose. Solutions were bubbled with 5% CO2/95% O2 and maintained at 37° C. […]
(§2) Compound toxicity was evaluated by compound incubation for 24 h with MDCK cell cultures followed by Alamar blue assay. […] To assess potential ion channel off-target effects, short-circuit current was measured in MDCK cells in response to cAMP (forskolin) and calcium (ATP) agonists (FIG. 5C, right), which depends on the actions of multiple anion (CFTR, calcium-activated chloride channels) and cation (K^+, Na^+) channels.

Solubility = assay type: physicochemical
Method: Several vehicles and administration routes were tested in order to give predicted therapeutic inhibitor concentrations in blood and urine. […] Because of the alkaline pH of the administered compounds the vehicle control for UTAinh-F11 was 20% dimethylacetamide and 1.2 mg/mL NaHCO3 in saline to give identical pH. […] Urine levels of UTAinh-F11 were >3 μM over 6 h.
as §2

Row | inhibition of transepithelial urea transport (UT-A1) [%] | equilibration time in MDCK cells (MDCK cell monolayers) [s] | solubility (Solubility; read-out: solubility limit) [µM] | SMILES | short-circuit current [1] | solubility (Solubility; in words, vehicle selection)
1 | ~50 | 14 | ~25 (≈ 10.8 µg/mL) | COc1ccc(C)cc1S(=O)(=O)Nc1ccc(Cl)c(N2CCCS2(=O)=O)c1 [UTA1inh-F11, N-[4-Chloro-3-(1,1-dioxido-1,2-thiazolidin-2-yl)phenyl]-2-methoxy-5-methylbenzene-sulfonamide] | Neither inhibitor at 20 μM altered short-circuit current | dissolved well in 20% dimethylacetamide, 0.6 mg/mL NaOH in saline
2 | ~50 | 250 | ~25 (≈ 8.34 µg/mL) | CC(=O)Nc1ccc(-c2csc(-c3c[nH]c4ccccc34)n2)cc1 [UTA1inh-E02, N-(4-(2-(1H-indol-3-yl)thiazol-4-yl)phenyl)acetamide] | Neither inhibitor at 20 μM altered short-circuit current | limited solubility
